Laboratory results: US20230257398A1, “PYRIMIDINE-BASED TRICYCLIC COMPOUND AND USE THEREOF” (Chia Tai Tianqing Pharmaceutical Group Co., Ltd., priority 2020, published 2023)

The compounds below were run against T1, sGC (Homo sapiens, UniProt Q02108+Q02153) (assay: lnCap cell-based cGMP expression assay (stimulating activity for sGC)). Conditions: with DETA-NO, 37° C. 30 min, HTRF cGMP.
T1 construct: Preparation of LNCap Cells; endogenous in cells; host or cells: LNCaP cells (14th generation), no transfection described
T1 sequence (Q02153 1-619): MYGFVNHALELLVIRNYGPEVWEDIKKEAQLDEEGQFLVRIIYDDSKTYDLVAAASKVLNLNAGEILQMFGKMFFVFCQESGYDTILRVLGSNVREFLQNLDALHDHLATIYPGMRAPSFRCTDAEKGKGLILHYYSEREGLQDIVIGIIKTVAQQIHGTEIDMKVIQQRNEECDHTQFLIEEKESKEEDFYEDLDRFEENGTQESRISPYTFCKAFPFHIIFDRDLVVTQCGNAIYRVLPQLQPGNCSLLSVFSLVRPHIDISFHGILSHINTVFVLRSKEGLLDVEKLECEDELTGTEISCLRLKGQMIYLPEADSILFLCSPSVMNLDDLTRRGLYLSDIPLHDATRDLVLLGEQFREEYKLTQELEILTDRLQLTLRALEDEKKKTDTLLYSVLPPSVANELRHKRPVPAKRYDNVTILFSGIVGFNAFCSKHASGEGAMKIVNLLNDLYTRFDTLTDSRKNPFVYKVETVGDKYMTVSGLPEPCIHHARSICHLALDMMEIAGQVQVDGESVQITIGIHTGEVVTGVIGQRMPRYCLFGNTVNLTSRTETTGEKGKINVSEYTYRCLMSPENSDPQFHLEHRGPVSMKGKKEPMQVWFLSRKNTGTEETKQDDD
T1 sequence (Q02108 1-690): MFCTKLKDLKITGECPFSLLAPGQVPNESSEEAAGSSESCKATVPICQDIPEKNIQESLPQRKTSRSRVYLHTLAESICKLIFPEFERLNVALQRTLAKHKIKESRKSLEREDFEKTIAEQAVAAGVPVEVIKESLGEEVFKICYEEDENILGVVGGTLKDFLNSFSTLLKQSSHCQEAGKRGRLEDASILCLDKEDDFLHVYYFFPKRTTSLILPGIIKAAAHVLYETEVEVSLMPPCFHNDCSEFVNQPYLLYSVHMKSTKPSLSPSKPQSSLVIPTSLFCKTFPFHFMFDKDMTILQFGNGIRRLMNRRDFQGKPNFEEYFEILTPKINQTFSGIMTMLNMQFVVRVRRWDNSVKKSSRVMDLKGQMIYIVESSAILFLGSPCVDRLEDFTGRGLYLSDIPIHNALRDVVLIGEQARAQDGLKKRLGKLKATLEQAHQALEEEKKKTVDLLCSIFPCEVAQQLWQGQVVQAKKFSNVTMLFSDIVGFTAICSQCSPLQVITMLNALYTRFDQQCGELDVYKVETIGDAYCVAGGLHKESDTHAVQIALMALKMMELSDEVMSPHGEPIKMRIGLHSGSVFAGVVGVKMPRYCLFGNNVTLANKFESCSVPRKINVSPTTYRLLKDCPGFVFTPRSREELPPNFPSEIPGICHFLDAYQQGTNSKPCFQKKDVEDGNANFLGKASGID
Protocol: I. lnCap Cell-Based cGMP Expression Assay
1) Preparation of Solutions
10% BSA (Bovine Serum Albumin)
10 g of BSA was dissolved in 100 mL of double distilled water (ddH2O) to give 10% BSA.
5 mM DETA (Diethylenetriamine)-NO
10 mg of DETA-NO was weighed out and dissolved in 12.2 mL of double distilled water (ddH2O) to give 5 mM DETA-NO, which was aliquoted and cryopreserved in a freezer at −20° C.
a) To 1 mL of a lysis buffer was added 50 μL of cGMP-D2 (D2-labeled cyclic guanosine monophosphate), and the mixture was well mixed.
b) To 1 mL of a lysis buffer was added 50 μL of anti-cGMP cryptate (Eu^3+ cryptate-labeled anti-cyclic guanosine monophosphate antibody), and the mixture was well mixed.
(1) The compounds were diluted to 5 mM with DMSO. 10 μL of each of the compounds was transferred to a shallow well plate for Echo.
(2) The compounds were gradiently diluted with Echo. Each of the compounds was diluted to obtain 10 concentration gradients, and 50 nL of each of the concentration gradients was added to a 384 microwell plate.
3) Preparation of LNCap Cells
(1) LNCap medium: RPMI1640+10% fetal bovine serum+1% […].
(2) Phosphate buffered saline, pancreatin and the medium used in the process of cell passaging were pre-heated in a water bath at 37° C.
(3) The cells (the 14th generation) were taken out of the 37° C., 5% CO2 incubator, and the old medium was pipetted off the culture flask.
(4) 5 mL of phosphate buffered saline was pipetted into the culture flask to rinse the cells, and then the liquid was discarded.
(5) 3 mL of pancreatin was pipetted into the culture flask. After the culture flask was shaken, the liquid was discarded, and the culture flask was placed in the incubator.
(6) After about 2 min the culture flask was taken out. […] The cell suspension was transferred to a 50 mL centrifuge tube.
(7) 0.7 mL of the cell suspension was pipetted into a counter cup and the cells were counted on a ViCell XR. The remaining cells were centrifuged at 1000 rpm for 5 min, and the supernatant was removed.
(8) The cells were washed by adding 10 mL of the washing buffer and centrifuged at 1000 rpm for 5 min, and the supernatant was removed.
(9) The assay buffer was added to adjust the cell concentration to 1.25×10^6/mL. The cells were added to the microwell plate at 8 μL/well.
4) Formulation and Addition of DETA-NO
(1) 10 μL of 5 mM DETA-NO was added to 1240 μL of the assay buffer and to 1657 μL of the assay buffer to give 40 μM DETA-NO and 30 μM DETA-NO, respectively.
(2) DETA-NO was transferred to the 384 microwell plate at 2 μL/well using Bravo.
(3) The mixtures were centrifuged at 1500 rpm for 5 min. The microwell plate was incubated at 37° C. for 30 min.
5) Preparation of cGMP Standard Curve
(1) 1 mM of the cGMP stock solution was diluted to 10 μM with the assay buffer. Then 4-fold gradient dilution was performed to obtain 11 concentration gradients.
(2) The cGMP dilutions were added to the microwell plate at 10 μL/well.
6) Addition of Detection Reagents and Plate Reading
(1) cGMP-D2 was transferred to the 384 microwell plate at 5 μL/well using Bravo. The mixtures were centrifuged at 1500 rpm for 1 min.
(2) The anti-cGMP cryptate was transferred to the 384 microwell plate at 5 μL/well using Bravo. The mixtures were centrifuged at 1500 rpm for 1 min.
(3) The plate was incubated at room temperature for 1 h.
(4) 665/615 was read using envision.
(1) cGMP standard curve: a standard curve was generated using Graphpad prism based on the cGMP concentrations and 665/615 ratios.
(2) Conversion of HTRF (homogeneous time-resolved fluorescence) ratios (665/615) to cGMP concentrations: in Graphpad prism, the HTRF ratios (665/615) were copied into the ratio column of the cGMP standard curve, and the “Log inhibitor vs response-variable slope” analysis was run with “interpolate” selected to convert the HTRF ratios (665/615) to cGMP concentrations. […]
`CC12CC(=O)Nc3nc(-c4nn(Cc5ccccc5F)c5ncc(F)cc45)nc(c31)NC2=O` (stereo not shown) [Compound 001] was tested, and the “MEC: minimum effective concentration to stimulate cGMP production (three times greater than the basal value) in lnCap cells” value (“MEC: minimum effective concentration” below) was 6.38 nM. In the case of `O=c1[nH]c2nc(-c3nn(Cc4ccccc4F)c4ncc(F)cc34)nc3c2n1CCN3` [Compound 002], the “MEC: minimum effective concentration” value is reported as 81.22 nM. `CC12CCNc3nc(-c4nn(Cc5ccccc5F)c5ncc(F)cc45)nc(c31)NC2=O` (stereo not shown) [Compound 003] was tested, and the “MEC: minimum effective concentration” value was 7.97 nM. With `O=C1Cn2c(=O)[nH]c3nc(-c4nn(Cc5ccccc5F)c5ncc(F)cc45)nc(c32)N1` [Compound 004] the “MEC: minimum effective concentration” value was 142.79 nM. In the case of `CC12CC(=O)Nc3nc(-c4nn(Cc5ccccc5F)c5ncc(F)cc45)nc(c31)NC(=O)C2` [Compound 007], the “MEC: minimum effective concentration” value is reported as 55.54 nM. With `CC12CCC(=O)Nc3nc(-c4nn(Cc5ccccc5F)c5ncc(F)cc45)nc(c31)NC(=O)C2` (stereo not shown) [Compound 008] the “MEC: minimum effective concentration” value was 88.37 nM. In the case of `CC12CCNc3nc(-c4nn(CCC(F)(F)C(F)(F)F)c5ncc(F)cc45)nc(c31)NC2=O` (stereo not shown) [Compound 009], the “MEC: minimum effective concentration” value is reported as 5.8 nM. In the case of `CC12CC(=O)Nc3nc(-c4nn(Cc5c(F)cccc5F)c5ncc(F)cc45)nc(c31)NC(=O)C2` [Compound 010], the “MEC: minimum effective concentration” value is reported as 51.76 nM. For `CC12CCC(=O)Nc3nc(-c4nn(Cc5c(F)cccc5F)c5ncc(F)cc45)nc(c31)NC(=O)C2` (stereo not shown) [Compound 011], the “MEC: minimum effective concentration” value was 178.6 nM. `CC12CC(=O)Nc3nc(-c4nn(CCC(F)(F)C(F)(F)F)c5ncc(F)cc45)nc(c31)NC(=O)C2` [Compound 012] was tested, and the “MEC: minimum effective concentration” value was 118.6 nM. For `CC12CCC(=O)Nc3nc(-c4nn(Cc5c(F)cccc5F)c5ncc(F)cc45)nc(c31)NC2=O` (stereo not shown) [Compound 013], the “MEC: minimum effective concentration” value was 3.12 nM. In the case of `CC12CCC(=O)Nc3nc(-c4nn(CCC(F)(F)C(F)(F)F)c5ncc(F)cc45)nc(c31)NC(=O)C2` (stereo not shown) [Compound 014], the “MEC: minimum effective concentration” value is reported as 402.7 nM. For `CC12CCNc3nc(-c4nn(Cc5c(F)cccc5F)c5ncc(F)cc45)nc(c31)NC2=O` (stereo not shown) [Compound 015], the “MEC: minimum effective concentration” value was 4.66 nM. For `CC12CC(=O)Nc3nc(-c4nn(CCC(F)(F)C(F)(F)F)c5ncc(F)cc45)nc(c31)NC2=O` (stereo not shown) [Compound 016], the “MEC: minimum effective concentration” value was 17.51 nM. For `CC12CC(=O)Nc3nc(-c4nn(Cc5c(F)cccc5F)c5ncc(F)cc45)nc(c31)NC2=O` (stereo not shown) [Compound 017], the “MEC: minimum effective concentration” value was 3.46 nM. For `CC12CCC(=O)Nc3nc(-c4nn(CCC(F)(F)C(F)(F)F)c5ncc(F)cc45)nc(c31)NC2=O` (stereo not shown) [Compound 018], the “MEC: minimum effective concentration” value was 13.12 nM. With `CC12CCC(=O)Nc3nc(-c4nn(Cc5ccccc5F)c5ncc(F)cc45)nc(c31)NC2=O` (stereo not shown) [Compound 019] the “MEC: minimum effective concentration” value was 2.4 nM. With `CC12CCNc3nc(-c4nn(Cc5c(F)cccc5F)c5ncc(F)cc45)nc(c31)NC(=O)C2` (stereo not shown) [Compound 022] the “MEC: minimum effective concentration” value was 24.9 nM. With `CC12CCNc3nc(-c4nn(CCC(F)(F)C(F)(F)F)c5ncc(F)cc45)nc(c31)NC(=O)C2` (stereo not shown) [Compound 023] the “MEC: minimum effective concentration” value was 26.12 nM. With `CC12CC(=O)Nc3nc(-c4nn(Cc5ccccc5F)c5ncc(F)cc45)nc(c31)NC2=O` (stereo not shown) [Compound 024] the “MEC: minimum effective concentration” value was 7.59 nM. `CC12CNC(=O)c3nc(-c4nn(Cc5ccccc5F)c5ncc(F)cc45)nc(c31)NC2=O` (stereo not shown) [Compound 028] was tested, and the “MEC: minimum effective concentration” value was 21.26 nM. For `CN1C(=O)CC2(C)C(=O)Nc3nc(-c4nn(Cc5ccccc5F)c5ncc(F)cc45)nc1c32` (stereo not shown) [Compound 029], the “MEC: minimum effective concentration” value was 37.34 nM. In the case of `CN1C(=O)C2(C)CC(=O)Nc3nc(-c4nn(Cc5ccccc5F)c5ncc(F)cc45)nc1c32` (stereo not shown) [Compound 030], the “MEC: minimum effective concentration” value is reported as 84.34 nM. In the case of `CC1(C)C(=O)Nc2nc(-c3nn(Cc4ccccc4F)c4ncc(F)cc34)nc3c2C1C(=O)N3` (stereo not shown) [Compound 031], the “MEC: minimum effective concentration” value is reported as 19.78 nM. With `CC12C(=O)Nc3nc(-c4nn(Cc5ccccc5F)c5ncc(F)cc45)nc(c31)NC(=O)C2(F)F` (stereo not shown) [Compound 034] the “MEC: minimum effective concentration” value was 31.53 nM. With `CC12OCCNc3nc(-c4nn(Cc5ccccc5F)c5ncc(F)cc45)nc(c31)NC2=O` (stereo not shown) [Compound 039] the “MEC: minimum effective concentration” value was 28.15 nM. For `CCOC(=O)C12CCOc3nc(-c4nn(Cc5ccccc5F)c5ncc(F)cc45)nc(c31)NC2=O` (stereo not shown) [Compound 048], the “MEC: minimum effective concentration” value was 33.55 nM. For `COC(=O)NC12CCOc3nc(-c4nn(Cc5ccccc5F)c5ncc(F)cc45)nc(c31)NC2=O` (stereo not shown) [Compound 049], the “MEC: minimum effective concentration” value was 126.5 nM.
